Test results: ChEMBL document CHEMBL1201862, “PubChem BioAssay data set” (2004)
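A five-concentration, 48-hour dose response in 96-well plates underlies each endpoint, interpolated linearly between surrounding concentrations. GI50 marks 50% less growth.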 Activity calls are given as the source filed them. Cut-off read from the data, not from the text of the source: active = GI50 up to about 1.1 µM and inactive = higher.

Experiments:
Assay in all cases: NCI-60 cell line screen, 48 h
ACHN = test system: ACHN
CAKI-1 = test system: CAKI-1
EKVX = test system: EKVX
HCT-116 = test system: HCT-116
HCT-15 = test system: HCT-15
HOP-92 = test system: HOP-92
Hs-578T = test system: Hs-578T
MCF7 = test system: MCF7
MDA-MB-231 = test system: MDA-MB-231
MOLT-4 = test system: MOLT-4
NCI-H460 = test system: NCI-H460
NCI-H522 = test system: NCI-H522
NCI/ADR-RES = test system: NCI/ADR-RES
PC-3 = test system: PC-3
SF-295 = test system: SF-295
SF-539 = test system: SF-539
SK-MEL-28 = test system: SK-MEL-28
SK-MEL-2 = test system: SK-MEL-2
SNB-75 = test system: SNB-75
UACC-257 = test system: UACC-257

Row | SMILES | GI50 (ACHN) | GI50 (CAKI-1) | GI50 (EKVX) | GI50 (HCT-116) | GI50 (HCT-15) [µM] | GI50 (HOP-92) | GI50 (Hs-578T) | GI50 (MCF7) | GI50 (MDA-MB-231) | GI50 (MOLT-4) | GI50 (NCI-H460) | GI50 (NCI-H522) | GI50 (NCI/ADR-RES) | GI50 (PC-3) | GI50 (SF-295) | GI50 (SF-539) | GI50 (SK-MEL-28) | GI50 (SK-MEL-2) | GI50 (SNB-75) | GI50 (UACC-257)
1 | O=c1oc2ccccc2cc1-c1csc(Nc2ccc(F)cc2)n1 | 8.55 µM (inactive) | 2.94 µM (inactive) | 1.97 µM (inactive) | 2.33 µM (inactive) | 2.86 | 6.53 µM (inactive) | 2.36 µM (inactive) | 2.77 µM (inactive) | 11.3 µM (inactive) | 5.18 µM (inactive) | 5.05 µM (inactive) | 1.91 µM (inactive) | 3.46 µM (inactive) | 5.43 µM (inactive) | 3.62 µM (inactive) | 1.91 µM (inactive) | 0.382 µM (active) | 14.8 µM (inactive) | 2.07 µM (inactive) | 14.8 µM (inactive)
2 | CCNC(C)(C)C(SS)c1ccc(Br)cc1 (stereo not given) | > 100 µM (inactive) | 78 µM (inactive) | > 100 µM (inactive) | 29.6 µM (inactive) | > 100 | > 100 µM (inactive) | > 100 µM (inactive) | 39.4 µM (inactive) | > 100 µM (inactive) | 21.1 µM (inactive) | 31.1 µM (inactive) | 18.4 µM (inactive) | > 100 µM (inactive) | 60.5 µM (inactive) | > 100 µM (inactive) | 38 µM (inactive) | > 100 µM (inactive) | > 100 µM (inactive) | > 100 µM (inactive) | 28.3 µM (inactive)
3 | BrCC(Br)(c1ccccc1)c1ccccc1-c1cc(-c2ccccc2)cc(-c2ccccc2)n1 (stereo not given) | 7.01 µM (inactive) | 5.87 µM (inactive) | 3.85 µM (inactive) | 2.81 µM (inactive) | 15.2 | 2.48 µM (inactive) | 4.52 µM (inactive) | 1.09 µM (active) | 3.15 µM (inactive) | 3.26 µM (inactive) | 3.38 µM (inactive) | 2.33 µM (inactive) | 33.9 µM (inactive) | 2.59 µM (inactive) | 2.9 µM (inactive) | 4.3 µM (inactive) | 4.46 µM (inactive) | 1.89 µM (inactive) | 1.27 µM (inactive) | 2.04 µM (inactive)
4 | Cc1ccc2nc(CN3CCCC(O)C3)cc(=O)n2c1 (stereo not given) | > 100 µM (inactive) | > 100 µM (inactive) | > 100 µM (inactive) | > 100 µM (inactive) | > 100 | > 100 µM (inactive) | > 100 µM (inactive) | > 100 µM (inactive) | > 100 µM (inactive) | > 100 µM (inactive) | > 100 µM (inactive) | > 100 µM (inactive) | > 100 µM (inactive) | > 100 µM (inactive) | > 100 µM (inactive) | > 100 µM (inactive) | > 100 µM (inactive) | > 100 µM (inactive) | > 100 µM (inactive) | > 100 µM (inactive)
5 | CN(Cc1cnc2nc(N)nc(N)c2n1)c1ccc(C(=O)N[C@@H](CCC(=O)O)C(=O)O)cc1 [METHOTREXATE] | 0.0385 µM (active) | 0.0614 µM (active) | 18.4 µM (inactive) | 0.0347 µM (active) | 0.0343 | 7.21 µM (inactive) | 192 µM (inactive) | 0.0486 µM (active) | 38.7 µM (inactive) | 0.0326 µM (active) | 0.028 µM (active) | 0.25 µM (active) | 0.0929 µM (active) | 0.0865 µM (active) | 0.0383 µM (active) | 0.0375 µM (active) | 4.86 µM (inactive) | 102 µM (inactive) | 21.7 µM (inactive) | 0.836 µM (active)
6 | C=C1C(=O)OC2/C=C(/C)C(OC(C)=O)C/C=C(\C)C(OC(=O)C3(C)OC3C)C(O)C12 (stereo not given) | > 100 µM (inactive) | 65.8 µM (inactive) | > 100 µM (inactive) | 39.7 µM (inactive) | 53.3 | > 100 µM (inactive) | > 100 µM (inactive) | 51.1 µM (inactive) | > 100 µM (inactive) | 36.9 µM (inactive) | > 100 µM (inactive) | 14.9 µM (inactive) | > 100 µM (inactive) | > 100 µM (inactive) | > 100 µM (inactive) | > 100 µM (inactive) | 71 µM (inactive) | > 100 µM (inactive) | 97.7 µM (inactive) | > 100 µM (inactive)
7 | Cc1cc(S(=O)(=O)Nc2nc(Nc3ccccc3)n[nH]2)c(SCC(=O)O)cc1Cl | > 100 µM (inactive) | > 100 µM (inactive) | > 100 µM (inactive) | > 100 µM (inactive) | > 100 | > 100 µM (inactive) | > 100 µM (inactive) | > 100 µM (inactive) | > 100 µM (inactive) | > 100 µM (inactive) | > 100 µM (inactive) | > 100 µM (inactive) | > 100 µM (inactive) | > 100 µM (inactive) | > 100 µM (inactive) | > 100 µM (inactive) | > 100 µM (inactive) | > 100 µM (inactive) | > 100 µM (inactive) | > 100 µM (inactive)
8 | O=C1c2ccccc2C(=O)N1CCCC(=O)n1cc(F)c(=O)[nH]c1=O | 15.8 µM (inactive) | 6.05 µM (inactive) | > 58.3 µM (inactive) | 6.24 µM (inactive) | 8.41 | > 21.4 µM (inactive) | > 100 µM (inactive) | 6.21 µM (inactive) | > 100 µM (inactive) | 35.4 µM (inactive) | 2.68 µM (inactive) | 37.4 µM (inactive) | 7.98 µM (inactive) | 30.1 µM (inactive) | 49.1 µM (inactive) | 7 µM (inactive) | > 100 µM (inactive) | > 100 µM (inactive) | 37 µM (inactive) | > 75.2 µM (inactive)
9 | COc1cc(NS(C)(=O)=O)ccc1Nc1c2ccccc2nc2ccccc12 [AMSACRINE] | 0.0525 µM (active) | 0.0973 µM (active) | 2.08 µM (inactive) | 0.955 µM (active) | 0.716 | 0.524 µM (active) | 1.79 µM (inactive) | 0.103 µM (active) | 2.41 µM (inactive) | 0.0332 µM (active) | 0.028 µM (active) | 0.668 µM (active) | 3.42 µM (inactive) | 0.415 µM (active) | 0.104 µM (active) | 0.207 µM (active) | 2.59 µM (inactive) | 3.7 µM (inactive) | 0.403 µM (active) | 2.95 µM (inactive)
10 | COC(=O)c1cc(C(=CCC[C@H]2CC[C@@]3(C)C(CCC4C3CC[C@@]3(C)C4CC[C@@H]3C(C)CCCC(C)C)C2)c2cc(Cl)c(OC(=O)c3ccccc3)c(C(=O)OC)c2)cc(Cl)c1OC(=O)c1ccccc1 (stereo not given in full) | > 10 µM (inactive) | > 10 µM (inactive) | > 10 µM (inactive) | > 10 µM (inactive) | > 10 | > 10 µM (inactive) | > 10 µM (inactive) | > 10 µM (inactive) | > 10 µM (inactive) | > 10 µM (inactive) | > 10 µM (inactive) | > 10 µM (inactive) | > 10 µM (inactive) | > 10 µM (inactive) | > 10 µM (inactive) | > 10 µM (inactive) | > 10 µM (inactive) | > 10 µM (inactive) | > 10 µM (inactive) | > 10 µM (inactive)
11 | Nc1nc(I)nc2c1ncn2C1OC(COS(N)(=O)=O)C(O)C1O (stereo not given) | < 0.0117 µM (active) | 0.0336 µM (active) | < 0.0121 µM (active) | < 0.01 µM (active) | 0.0176 | < 0.0142 µM (active) | < 0.01 µM (active) | < 0.01 µM (active) | < 0.01 µM (active) | < 0.01 µM (active) | 0.0126 µM (active) | < 0.01 µM (active) | < 0.01 µM (active) | < 0.01 µM (active) | 0.0393 µM (active) | < 0.01 µM (active) | < 0.01 µM (active) | < 0.01 µM (active) | < 0.01 µM (active) | 0.0163 µM (active)
12 | COC(=O)c1cc(OC)c(OC)c(OC)c1-c1cc2c(cc1C=O)OCO2 | > 10 µM (inactive) | > 10 µM (inactive) | > 10 µM (inactive) | > 10 µM (inactive) | > 10 | > 10 µM (inactive) | > 10 µM (inactive) | > 10 µM (inactive) | > 10 µM (inactive) | > 10 µM (inactive) | > 10 µM (inactive) | > 10 µM (inactive) | > 10 µM (inactive) | > 10 µM (inactive) | > 10 µM (inactive) | > 10 µM (inactive) | > 10 µM (inactive) | > 10 µM (inactive) | > 10 µM (inactive) | > 10 µM (inactive)
13 | CCN(CC)CCCNc1ccc([N+](=O)[O-])c2nc3ccc(OC)cc3c(N)c12 | > 6.67 µM (inactive) | > 10 µM (inactive) | > 10 µM (inactive) | 1.05 µM (active) | 1.72 | > 3.65 µM (inactive) | 1.2 µM (inactive) | > 4.37 µM (inactive) | 1.7 µM (inactive) | 1.33 µM (inactive) | 1.82 µM (inactive) | 2.82 µM (inactive) | > 4.17 µM (inactive) | 1.75 µM (inactive) | 1.82 µM (inactive) | 1.85 µM (inactive) | > 10 µM (inactive) | > 9.33 µM (inactive) | 1.93 µM (inactive) | > 10 µM (inactive)
14 | CC1=CC(=O)[C@@H](O)[C@]2(C)[C@H]3[C@@]4(O)OC[C@]35[C@H]([C@@H](C)[C@H]4O)[C@@H](OC(=O)C(C)(C)CO)C(=O)O[C@@H]5C[C@@H]12 | 0.208 µM (active) | 1.08 µM (active) | 0.741 µM (active) | < 0.0199 µM (active) | 0.292 | 0.0887 µM (active) | 0.046 µM (active) | < 0.0189 µM (active) | 0.363 µM (active) | 0.0178 µM (active) | 0.0568 µM (active) | < 0.0151 µM (active) | 2.32 µM (inactive) | 0.0698 µM (active) | 0.229 µM (active) | < 0.0153 µM (active) | 0.0478 µM (active) | < 0.0453 µM (active) | 0.045 µM (active) | 0.118 µM (active)
